Laboratory results reported in ChEMBL document CHEMBL1136685, “Structure-activity relationship of cyclic peptide penta-c[Asp-His(6)-DPhe(7)-Arg(8)-Trp(9)-Lys]-NH(2) at the human melanocortin-1 and -4 receptors: His(6) substitution” (Bioorg Med Chem Lett, 2003).

Key:
Melanocortin receptor 4 [1] = molecular target: T1, Melanocortin receptor 4 (Homo sapiens, UniProt P32245); assay: Agonist activity at human melanocortin receptor (hMC4R).; format: functional
[2] = molecular target: T2, Melanocyte-stimulating hormone receptor (Homo sapiens, UniProt Q01726); assay: Agonist activity at human melanocortin receptor (hMC1R).; format: functional
Target sequence in this assay (Q01726 whole entry): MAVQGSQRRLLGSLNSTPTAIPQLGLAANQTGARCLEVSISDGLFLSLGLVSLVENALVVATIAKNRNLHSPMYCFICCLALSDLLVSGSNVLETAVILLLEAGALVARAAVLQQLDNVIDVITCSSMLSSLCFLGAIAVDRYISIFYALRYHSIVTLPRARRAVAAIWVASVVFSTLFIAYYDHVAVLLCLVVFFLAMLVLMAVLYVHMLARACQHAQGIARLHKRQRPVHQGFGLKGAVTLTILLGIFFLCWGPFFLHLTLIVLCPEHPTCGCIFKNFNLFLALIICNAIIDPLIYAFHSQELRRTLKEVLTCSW

[3] = molecular target: T2, Melanocyte-stimulating hormone receptor; assay: Agonistic activity against human melanocortin receptor (hMC1R) for cAMP accumulation at a concentration of 50 uM; format: functional
Target sequence in this assay (Q01726 whole entry, looked up): as the sequence (Q01726 whole entry) above

[4] = molecular target: T2, Melanocyte-stimulating hormone receptor; assay: Binding affinity towards human melanocortin receptor (hMC1R) using NDP-MSH as radioligand
Target sequence in this assay (Q01726 whole entry): as above

Melanocortin receptor 4 [5] = molecular target: T1, Melanocortin receptor 4; assay: Binding affinity towards human melanocortin receptor (hMC4R) using NDP-MSH as radioligand
Melanocortin receptor 4 [6] = molecular target: T1, Melanocortin receptor 4; assay: Agonistic activity against human melanocortin receptor (hMC4R) for cAMP accumulation; format: functional
Melanocortin receptor 3 = Melanocortin receptor 3 (Homo sapiens, UniProt P41968); assay: Agonistic activity against human melanocortin receptor (hMC3R) for cAMP accumulation at a concentration of 50 uM; format: functional
Melanocortin receptor 5 = Melanocortin receptor 5 (Homo sapiens, UniProt P33032); assay: Agonistic activity against human melanocortin receptor (hMC5R) for cAMP accumulation at a concentration of 50 uM; format: functional
Chain of Melanocortin receptor 5 (P33032 whole entry): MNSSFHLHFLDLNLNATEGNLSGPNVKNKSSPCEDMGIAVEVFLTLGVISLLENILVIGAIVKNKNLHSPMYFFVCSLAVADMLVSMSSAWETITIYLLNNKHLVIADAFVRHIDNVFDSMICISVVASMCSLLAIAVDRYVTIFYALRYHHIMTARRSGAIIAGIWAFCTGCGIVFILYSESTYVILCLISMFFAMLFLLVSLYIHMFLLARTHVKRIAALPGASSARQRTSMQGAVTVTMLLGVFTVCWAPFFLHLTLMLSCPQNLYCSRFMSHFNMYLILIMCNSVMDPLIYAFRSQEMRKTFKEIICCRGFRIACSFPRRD

Chain of Melanocortin receptor 3 (P41968 whole entry): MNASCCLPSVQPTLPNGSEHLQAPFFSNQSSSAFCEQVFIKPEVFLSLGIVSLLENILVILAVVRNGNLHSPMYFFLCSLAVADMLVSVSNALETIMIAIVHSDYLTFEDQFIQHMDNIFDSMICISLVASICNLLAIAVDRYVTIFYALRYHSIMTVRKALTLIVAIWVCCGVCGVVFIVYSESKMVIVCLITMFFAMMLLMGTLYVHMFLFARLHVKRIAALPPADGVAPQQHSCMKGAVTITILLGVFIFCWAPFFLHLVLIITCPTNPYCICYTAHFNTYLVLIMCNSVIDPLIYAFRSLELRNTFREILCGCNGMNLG
T1 sequence (P32245 whole entry): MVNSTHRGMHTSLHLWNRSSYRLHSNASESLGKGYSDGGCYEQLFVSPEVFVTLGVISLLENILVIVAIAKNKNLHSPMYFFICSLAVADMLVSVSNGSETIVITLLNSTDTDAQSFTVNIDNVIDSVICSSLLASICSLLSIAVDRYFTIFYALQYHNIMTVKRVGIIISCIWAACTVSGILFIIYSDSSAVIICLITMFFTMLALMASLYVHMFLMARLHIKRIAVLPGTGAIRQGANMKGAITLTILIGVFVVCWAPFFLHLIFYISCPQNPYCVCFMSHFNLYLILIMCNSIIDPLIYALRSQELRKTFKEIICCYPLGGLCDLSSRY

CCCCC(=O)N[C@H]1CC(=O)NCCCC[C@@H](C(N)=O)NC(=O)[C@H](Cc2c[nH]c3ccccc23)NC(=O)[C@H](CCCN=C(N)N)NC(=O)[C@@H](Cc2ccccc2)NC(=O)[C@@]2(CCc3c(CC)cccc3C2)NC1=O showed an EC50 (Melanocortin receptor 4 [1]) of 8 nM and an EC50 [2] of 420 nM.
Molecule CCCCC(=O)N[C@H]1CC(=O)NCCCC[C@@H](C(N)=O)NC(=O)[C@H](Cc2c[nH]c3ccccc23)NC(=O)[C@H](CCCN=C(N)N)NC(=O)[C@@H](Cc2ccccc2)NC(=O)[C@@H]2Cc3ccccc3CN2C1=O has an EC50 (Melanocortin receptor 4 [1]) of 3 nM and an EC50 [2] of 5 nM.
CCCC[C@H](NC(C)=O)C(=O)N[C@H]1CC(=O)NCCCC[C@@H](C(N)=O)NC(=O)[C@H](Cc2c[nH]c3ccccc23)NC(=O)[C@H](CCCN=C(N)N)NC(=O)[C@@H](Cc2ccccc2)NC(=O)[C@H](CCC(N)=O)NC1=O was tested, and the EC50 (Melanocortin receptor 4 [1]) was 0.3 nM and the EC50 [2] was 0.3 nM.
CCCCC(=O)N[C@H]1CC(=O)NCCCC[C@@H](C(N)=O)NC(=O)[C@H](Cc2c[nH]c3ccccc23)NC(=O)[C@H](CCCNC(=N)N)NC(=O)[C@@H](Cc2ccccc2)NC(=O)C2(Cc3ccccc3C2)NC1=O showed an EC50 (Melanocortin receptor 4 [1]) of 65 nM and an EC50 [2] of 370 nM.
For CCCCC(=O)N[C@H]1CC(=O)NCCCC[C@@H](C(N)=O)NC(=O)[C@H](Cc2c[nH]c3ccccc23)NC(=O)[C@H](CCCN=C(N)N)NC(=O)[C@@H](Cc2ccccc2)NC(=O)[C@H](Cc2ccc(C(F)(F)F)cc2)NC1=O, the EC50 (Melanocortin receptor 4 [1]) was 2 nM and the EC50 [2] was 12 nM.
Work on CCCCC(=O)N[C@H]1CC(=O)NCCCC[C@@H](C(N)=O)NC(=O)[C@H](Cc2c[nH]c3ccccc23)NC(=O)[C@H](CCCN=C(N)N)NC(=O)[C@@H](Cc2ccccc2)NC(=O)C2(CCc3cc(Br)ccc3C2)NC1=O (mixture of isomers) yielded an EC50 (Melanocortin receptor 4 [1]) of 37 nM.
With CCCCC(=O)N[C@H]1CC(=O)NCCCC[C@@H](C(N)=O)NC(=O)[C@H](Cc2c[nH]c3ccccc23)NC(=O)[C@H](CCCN=C(N)N)NC(=O)[C@@H](Cc2ccccc2)NC(=O)[C@@]2(CCc3c(cccc3OC)C2)NC1=O (mixture of isomers) the EC50 (Melanocortin receptor 4 [1]) was 5 nM and the EC50 [2] was 735 nM.
Work on CCCCC(=O)N[C@H]1CC(=O)NCCCC[C@@H](C(N)=O)NC(=O)[C@H](Cc2c[nH]c3ccccc23)NC(=O)[C@H](CCCN=C(N)N)NC(=O)[C@@H](Cc2ccccc2)NC(=O)[C@@]2(CCc3c(C)cccc3C2)NC1=O (mixture of isomers) yielded an EC50 (Melanocortin receptor 4 [1]) of 25 nM and a cAMP accumulation [3] of 80%.
For CCCCC(=O)N[C@H]1CC(=O)NCCCC[C@@H](C(N)=O)NC(=O)[C@H](Cc2c[nH]c3ccccc23)NC(=O)[C@H](CCCN=C(N)N)NC(=O)[C@@H](Cc2ccccc2)NC(=O)[C@@]2(CCc3ccccc3C2)NC1=O (mixture of isomers), the EC50 (Melanocortin receptor 4 [1]) was 65 nM and the EC50 [2] was 900 nM.
CCCCC(=O)N[C@H]1CC(=O)NCCCC[C@@H](C(N)=O)NC(=O)[C@H](Cc2c[nH]c3ccccc23)NC(=O)[C@H](CCCN=C(N)N)NC(=O)[C@@H](Cc2ccccc2)NC(=O)C2(CCc3cc(Cl)ccc3C2)NC1=O (mixture of isomers) gave an EC50 (Melanocortin receptor 4 [1]) of 33 nM.
Molecule CCCCC(=O)N[C@H]1CC(=O)NCCCC[C@@H](C(N)=O)NC(=O)[C@H](Cc2c[nH]c3ccccc23)NC(=O)[C@H](CCCNC(=N)N)NC(=O)[C@@H](Cc2ccccc2)NC(=O)C2(CCc3c(cccc3C(C)C)C2)NC1=O (mixture of isomers) has an EC50 (Melanocortin receptor 4 [1]) of 7 nM and an EC50 [2] of 480 nM.
Work on CCCCC(=O)N[C@H]1CC(=O)NCCCC[C@@H](C(N)=O)NC(=O)[C@H](Cc2c[nH]c3ccccc23)NC(=O)[C@H](CCCN=C(N)N)NC(=O)[C@@H](Cc2ccccc2)NC(=O)C2(CCc3c(cccc3N(C)C)C2)NC1=O (mixture of isomers) yielded an EC50 (Melanocortin receptor 4 [1]) of 45 nM and an EC50 [2] of 480 nM.
For CCCCC(=O)N[C@H]1CC(=O)NCCCC[C@@H](C(N)=O)NC(=O)[C@H](Cc2c[nH]c3ccccc23)NC(=O)[C@H](CCCN=C(N)N)NC(=O)[C@@H](Cc2ccccc2)NC(=O)C2(CCc3cccc(Br)c3C2)NC1=O (mixture of isomers), the EC50 (Melanocortin receptor 4 [1]) was 176 nM.
In the case of CCCCC(=O)N[C@H]1CC(=O)NCCCC[C@@H](C(N)=O)NC(=O)[C@H](Cc2c[nH]c3ccccc23)NC(=O)[C@H](CCCNC(=N)N)NC(=O)[C@@H](Cc2ccccc2)NC(=O)C2(CCc3ccc(Br)cc3C2)NC1=O (mixture of isomers), the EC50 (Melanocortin receptor 4 [1]) is reported as 10 nM and the EC50 [2] is reported as 140 nM.
With CCCCC(=O)N[C@H]1CC(=O)NCCCC[C@@H](C(N)=O)NC(=O)[C@H](Cc2c[nH]c3ccccc23)NC(=O)[C@H](CCCN=C(N)N)NC(=O)[C@@H](Cc2ccccc2)NC(=O)C2(CCc3c(Cl)cccc3C2)NC1=O (mixture of isomers) the EC50 (Melanocortin receptor 4 [1]) was 9 nM.
With CCCCC(=O)N[C@H]1CC(=O)NCCCC[C@@H](C(N)=O)NC(=O)[C@H](Cc2c[nH]c3ccccc23)NC(=O)[C@H](CCCN=C(N)N)NC(=O)[C@@H](Cc2ccccc2)NC(=O)C2(CCc3c(cccc3OC(C)C)C2)NC1=O (mixture of isomers) the EC50 (Melanocortin receptor 4 [1]) was 7 nM and the EC50 [2] was 1330 nM.
CCCCC(=O)N[C@H]1CC(=O)NCCCC[C@@H](C(N)=O)NC(=O)[C@H](Cc2c[nH]c3ccccc23)NC(=O)[C@H](CCCNC(=N)N)NC(=O)[C@@H](Cc2ccccc2)NC(=O)C2(CCc3c(cccc3OCC)C2)NC1=O (mixture of isomers) showed an EC50 (Melanocortin receptor 4 [1]) of 35 nM and an EC50 [2] of 1270 nM.
In the case of CCCCC(=O)N[C@@H]1CC(=O)NCCCC[C@@H](C(N)=O)NC(=O)[C@H](Cc2c[nH]c3ccccc23)NC(=O)[C@@H](CCCN=C(N)N)NC(=O)[C@H](Cc2ccccc2)NC(=O)C2(CCc3c(Cl)cccc3C2)NC1=O (mixture of isomers), the cAMP accumulation [3] is reported as 30%.
With CCCCC(=O)N[C@@H]1CC(=O)NCCCC[C@@H](C(N)=O)NC(=O)[C@H](Cc2c[nH]c3ccccc23)NC(=O)[C@@H](CCCN=C(N)N)NC(=O)[C@H](Cc2ccccc2)NC(=O)C2(CCc3cc(Br)ccc3C2)NC1=O (mixture of isomers) the cAMP accumulation [3] was 60%.
In the case of CCCCC(=O)N[C@@H]1CC(=O)NCCCC[C@@H](C(N)=O)NC(=O)[C@H](Cc2c[nH]c3ccccc23)NC(=O)[C@@H](CCCN=C(N)N)NC(=O)[C@H](Cc2ccccc2)NC(=O)C2(CCc3cc(Cl)ccc3C2)NC1=O (mixture of isomers), the cAMP accumulation [3] is reported as 50%.
CCCCC(=O)N[C@@H]1CC(=O)NCCCC[C@@H](C(N)=O)NC(=O)[C@H](Cc2c[nH]c3ccccc23)NC(=O)[C@@H](CCCN=C(N)N)NC(=O)[C@H](Cc2ccccc2)NC(=O)C2(CCc3cccc(Br)c3C2)NC1=O (mixture of isomers) gave a cAMP accumulation [3] of 60%.
In the case of CCCCC(=O)N[C@H]1CC(=O)NCCCC[C@@H](C(N)=O)NC(=O)[C@H](Cc2c[nH]c3ccccc23)NC(=O)[C@H](CCCN=C(N)N)NC(=O)[C@@H](Cc2ccccc2)NC(=O)C2(CCc3c(Cl)cccc3C2)NC1=O (single isomer, unassigned; form 1), the IC50 [4] is reported as 5820 nM, the IC50 (Melanocortin receptor 4 [5]) is reported as 15 nM and the EC50 (Melanocortin receptor 4 [6]) is reported as 4 nM.
Work on CCCCC(=O)N[C@H]1CC(=O)NCCCC[C@@H](C(N)=O)NC(=O)[C@H](Cc2c[nH]c3ccccc23)NC(=O)[C@H](CCCN=C(N)N)NC(=O)[C@@H](Cc2ccccc2)NC(=O)C2(CCc3c(Br)cccc3C2)NC1=O (single isomer, unassigned; form 1) yielded an EC50 (Melanocortin receptor 4 [1]) of 15 nM.
With CCCCC(=O)N[C@@H]1CC(=O)NCCCC[C@@H](C(N)=O)NC(=O)[C@H](Cc2c[nH]c3ccccc23)NC(=O)[C@@H](CCCN=C(N)N)NC(=O)[C@H](Cc2ccccc2)NC(=O)C2(CCc3c(Br)cccc3C2)NC1=O (single isomer, unassigned; form 1) the cAMP accumulation [3] was 80%.
CCCCC(=O)N[C@@H]1CC(=O)NCCCC[C@@H](C(N)=O)NC(=O)[C@H](Cc2c[nH]c3ccccc23)NC(=O)[C@@H](CCCN=C(N)N)NC(=O)[C@H](Cc2ccccc2)NC(=O)C2(CCc3c(Cl)cccc3C2)NC1=O (single isomer, unassigned; form 1) showed a cAMP accumulation [3] of 20%, a cAMP accumulation (Melanocortin receptor 3) of 25% and a cAMP accumulation (Melanocortin receptor 5) of 75%.
CCCCC(=O)N[C@@H]1CC(=O)NCCCC[C@@H](C(N)=O)NC(=O)[C@H](Cc2c[nH]c3ccccc23)NC(=O)[C@@H](CCCNC(N)=O)NC(=O)[C@H](Cc2ccccc2)NC(=O)C2(CCc3c(Cl)cccc3C2)NC1=O (single isomer, unassigned; form 1) gave a cAMP accumulation [3] of 0%, a cAMP accumulation (Melanocortin receptor 3) of 0% and a cAMP accumulation (Melanocortin receptor 5) of 0%.
CCCCC(=O)N[C@H]1CC(=O)NCCCC[C@@H](C(N)=O)NC(=O)[C@H](Cc2c[nH]c3ccccc23)NC(=O)[C@H](CCCN=C(N)N)NC(=O)[C@@H](Cc2ccccc2)NC(=O)[C@@H]2c3ccccc3CN2C1=O (single isomer, unassigned; form 2) was tested, and the EC50 (Melanocortin receptor 4 [1]) was 2 nM and the EC50 [2] was 3 nM.
CCCCC(=O)N[C@H]1CC(=O)NCCCC[C@@H](C(N)=O)NC(=O)[C@H](Cc2c[nH]c3ccccc23)NC(=O)[C@H](CCCN=C(N)N)NC(=O)[C@@H](Cc2ccccc2)NC(=O)C2(CCc3c(Cl)cccc3C2)NC1=O (single isomer, unassigned; form 2) gave an EC50 (Melanocortin receptor 4 [6]) of 40 nM.
Work on CCCCC(=O)N[C@H]1CC(=O)NCCCC[C@@H](C(N)=O)NC(=O)[C@H](Cc2c[nH]c3ccccc23)NC(=O)[C@H](CCCN=C(N)N)NC(=O)[C@@H](Cc2ccccc2)NC(=O)C2(CCc3c(Br)cccc3C2)NC1=O (single isomer, unassigned; form 2) yielded an EC50 (Melanocortin receptor 4 [1]) of 41 nM.
CCCCC(=O)N[C@@H]1CC(=O)NCCCC[C@@H](C(N)=O)NC(=O)[C@H](Cc2c[nH]c3ccccc23)NC(=O)[C@@H](CCCN=C(N)N)NC(=O)[C@H](Cc2ccccc2)NC(=O)C2(CCc3c(Br)cccc3C2)NC1=O (single isomer, unassigned; form 2) showed a cAMP accumulation [3] of 70%.
In the case of CCCCC(=O)N[C@@H]1CC(=O)NCCCC[C@@H](C(N)=O)NC(=O)[C@H](Cc2c[nH]c3ccccc23)NC(=O)[C@@H](CCCN=C(N)N)NC(=O)[C@H](Cc2ccccc2)NC(=O)C2(CCc3c(Cl)cccc3C2)NC1=O (single isomer, unassigned; form 2), the cAMP accumulation [3] is reported as 60%, the cAMP accumulation (Melanocortin receptor 3) is reported as 0% and the cAMP accumulation (Melanocortin receptor 5) is reported as 38%.
With CCCCC(=O)N[C@@H]1CC(=O)NCCCC[C@@H](C(N)=O)NC(=O)[C@H](Cc2c[nH]c3ccccc23)NC(=O)[C@@H](CCCNC(N)=O)NC(=O)[C@H](Cc2ccccc2)NC(=O)C2(CCc3c(Cl)cccc3C2)NC1=O (single isomer, unassigned; form 2) the cAMP accumulation [3] was 0%, the cAMP accumulation (Melanocortin receptor 3) was 0% and the cAMP accumulation (Melanocortin receptor 5) was 0%.
